Source: patent US8192962B2, “Processes for detecting toxic substances” (Daikin Industries, Ltd., priority 2001, dated 2012)

Tested on: Unknown protein yeast genes
Assay: DNA chip mRNA expression in yeast, unknown protein yeast genes (Table 1)
Type: cell-based, Saccharomyces cerevisiae S288C
Procedure, shortened: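 Ratios compare mRNA levels in stressed and control S. cerevisiae. Each toxicant was applied for two hours to log-phase cultures at 25° C. at a sub-lethal, growth-inhibiting level; fluorescent cDNA (Cy3- or Cy5-dUTP) was hybridized to a genome-wide yeast chip for over 12 h at 65° C.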

SMILES: CCCCCCCCCCCCc1ccc(S(=O)(=O)[O-])cc1.[Na+] [(17), sodium dodecylbenzosulfonate]
- The level of expressed mRNA in the presence of chemical substance/The level of expressed mRNA in the absence of chemical substance (yeast gene YKL195W, incubated two hours with chemical substance): 1.4
- The level of expressed mRNA in the presence of chemical substance/The level of expressed mRNA in the absence of chemical substance (yeast gene YKR091W, incubated two hours with chemical substance): 1.6
- The level of expressed mRNA in the presence of chemical substance/The level of expressed mRNA in the absence of chemical substance (yeast gene YLR054C, incubated two hours with chemical substance): 1.6
- The level of expressed mRNA in the presence of chemical substance/The level of expressed mRNA in the absence of chemical substance (yeast gene YLR149C, incubated two hours with chemical substance): 1.3
- The level of expressed mRNA in the presence of chemical substance/The level of expressed mRNA in the absence of chemical substance (yeast gene YLR152C, incubated two hours with chemical substance): 1.5
- The level of expressed mRNA in the presence of chemical substance/The level of expressed mRNA in the absence of chemical substance (yeast gene YLR194C, incubated two hours with chemical substance): 1.0
- The level of expressed mRNA in the presence of chemical substance/The level of expressed mRNA in the absence of chemical substance (yeast gene YLR324W, incubated two hours with chemical substance): 1.2
- The level of expressed mRNA in the presence of chemical substance/The level of expressed mRNA in the absence of chemical substance (yeast gene YLR350W, incubated two hours with chemical substance): 1.6
- The level of expressed mRNA in the presence of chemical substance/The level of expressed mRNA in the absence of chemical substance (yeast gene YLR387C, incubated two hours with chemical substance): 1.0
- The level of expressed mRNA in the presence of chemical substance/The level of expressed mRNA in the absence of chemical substance (yeast gene YLR460C): 1.0
- The level of expressed mRNA in the presence of chemical substance/The level of expressed mRNA in the absence of chemical substance (yeast gene YML117W, incubated two hours with chemical substance): 1.1
- The level of expressed mRNA in the presence of chemical substance/The level of expressed mRNA in the absence of chemical substance (yeast gene YMR009W, incubated two hours with chemical substance): 2.7
- The level of expressed mRNA in the presence of chemical substance/The level of expressed mRNA in the absence of chemical substance (yeast gene YMR067C, incubated two hours with chemical substance): 1.0
- The level of expressed mRNA in the presence of chemical substance/The level of expressed mRNA in the absence of chemical substance (yeast gene YMR090W): 1.8
- The level of expressed mRNA in the presence of chemical substance/The level of expressed mRNA in the absence of chemical substance (yeast gene YMR095C, incubated two hours with chemical substance): 1.0
- The level of expressed mRNA in the presence of chemical substance/The level of expressed mRNA in the absence of chemical substance (yeast gene YMR097C, incubated two hours with chemical substance): 1.4
- The level of expressed mRNA in the presence of chemical substance/The level of expressed mRNA in the absence of chemical substance (yeast gene YMR102C, incubated two hours with chemical substance): 2.4
- The level of expressed mRNA in the presence of chemical substance/The level of expressed mRNA in the absence of chemical substance (yeast gene YMR107W, incubated two hours with chemical substance): 1.3
- The level of expressed mRNA in the presence of chemical substance/The level of expressed mRNA in the absence of chemical substance (yeast gene YMR180C, incubated two hours with chemical substance): 1.4
- The level of expressed mRNA in the presence of chemical substance/The level of expressed mRNA in the absence of chemical substance (yeast gene YMR184W, incubated two hours with chemical substance): 1.4
- The level of expressed mRNA in the presence of chemical substance/The level of expressed mRNA in the absence of chemical substance (yeast gene YMR191W, incubated two hours with chemical substance): 1.2
- The level of expressed mRNA in the presence of chemical substance/The level of expressed mRNA in the absence of chemical substance (yeast gene YMR295C, incubated two hours with chemical substance): 2.1
- The level of expressed mRNA in the presence of chemical substance/The level of expressed mRNA in the absence of chemical substance (yeast gene YMR316W, incubated two hours with chemical substance): 6.9
- The level of expressed mRNA in the presence of chemical substance/The level of expressed mRNA in the absence of chemical substance (yeast gene YNL044W, incubated two hours with chemical substance): 3.1
- The level of expressed mRNA in the presence of chemical substance/The level of expressed mRNA in the absence of chemical substance (yeast gene YNL074C, incubated two hours with chemical substance): 1.1
- The level of expressed mRNA in the presence of chemical substance/The level of expressed mRNA in the absence of chemical substance (yeast gene YNL092W, incubated two hours with chemical substance): 1.7
- The level of expressed mRNA in the presence of chemical substance/The level of expressed mRNA in the absence of chemical substance (yeast gene YNL115C, incubated two hours with chemical substance): 1.6
- The level of expressed mRNA in the presence of chemical substance/The level of expressed mRNA in the absence of chemical substance (yeast gene YNL156C, incubated two hours with chemical substance): 1.8
- The level of expressed mRNA in the presence of chemical substance/The level of expressed mRNA in the absence of chemical substance (yeast gene YNL234W, incubated two hours with chemical substance): 1.0
- The level of expressed mRNA in the presence of chemical substance/The level of expressed mRNA in the absence of chemical substance (yeast gene YNL281W, incubated two hours with chemical substance): 0.9
- The level of expressed mRNA in the presence of chemical substance/The level of expressed mRNA in the absence of chemical substance (yeast gene YNL305C, incubated two hours with chemical substance): 1.7
- The level of expressed mRNA in the presence of chemical substance/The level of expressed mRNA in the absence of chemical substance (yeast gene YNR068C, incubated two hours with chemical substance): 1.0
- The level of expressed mRNA in the presence of chemical substance/The level of expressed mRNA in the absence of chemical substance (yeast gene YOL032W, incubated two hours with chemical substance): 1.7
- The level of expressed mRNA in the presence of chemical substance/The level of expressed mRNA in the absence of chemical substance (yeast gene YOL036W, incubated two hours with chemical substance): 1.1
- The level of expressed mRNA in the presence of chemical substance/The level of expressed mRNA in the absence of chemical substance (yeast gene YOL047C, incubated two hours with chemical substance): 1.5
- The level of expressed mRNA in the presence of chemical substance/The level of expressed mRNA in the absence of chemical substance (yeast gene YOL071W, incubated two hours with chemical substance): 1.3
- The level of expressed mRNA in the presence of chemical substance/The level of expressed mRNA in the absence of chemical substance (yeast gene YOL082W, incubated two hours with chemical substance): 1.6
- The level of expressed mRNA in the presence of chemical substance/The level of expressed mRNA in the absence of chemical substance (yeast gene YOL083W, incubated two hours with chemical substance): 1.4
- The level of expressed mRNA in the presence of chemical substance/The level of expressed mRNA in the absence of chemical substance (yeast gene YOL117W, incubated two hours with chemical substance): 1.3
- The level of expressed mRNA in the presence of chemical substance/The level of expressed mRNA in the absence of chemical substance (yeast gene YOL131W, incubated two hours with chemical substance): 1.1
- The level of expressed mRNA in the presence of chemical substance/The level of expressed mRNA in the absence of chemical substance (yeast gene YOL150C): 2.7
- The level of expressed mRNA in the presence of chemical substance/The level of expressed mRNA in the absence of chemical substance (yeast gene YOL162W, incubated two hours with chemical substance): 1.2
- The level of expressed mRNA in the presence of chemical substance/The level of expressed mRNA in the absence of chemical substance (yeast gene YOR019W, incubated two hours with chemical substance): 1.7
- The level of expressed mRNA in the presence of chemical substance/The level of expressed mRNA in the absence of chemical substance (yeast gene YOR197W, incubated two hours with chemical substance): 1.5
- The level of expressed mRNA in the presence of chemical substance/The level of expressed mRNA in the absence of chemical substance (yeast gene YPL087W, incubated two hours with chemical substance): 2.1
- The level of expressed mRNA in the presence of chemical substance/The level of expressed mRNA in the absence of chemical substance (yeast gene YPL196W, incubated two hours with chemical substance): 1.4
- The level of expressed mRNA in the presence of chemical substance/The level of expressed mRNA in the absence of chemical substance (yeast gene YPL206C, incubated two hours with chemical substance): 1.4
- The level of expressed mRNA in the presence of chemical substance/The level of expressed mRNA in the absence of chemical substance (yeast gene YPL222W, incubated two hours with chemical substance): 1.1
- The level of expressed mRNA in the presence of chemical substance/The level of expressed mRNA in the absence of chemical substance (yeast gene YPR023C, incubated two hours with chemical substance): 1.0
- The level of expressed mRNA in the presence of chemical substance/The level of expressed mRNA in the absence of chemical substance (yeast gene YPR151C, incubated two hours with chemical substance): 1.3
